Assay results reported in ChEMBL document CHEMBL1135887, “Substituted pentacyclic carbazolones as novel muscarinic allosteric agents: synthesis and structure-affinity and cooperativity relationships” (J Med Chem, 2002).

What was measured:
[1] = molecular target: T1, Muscarinic acetylcholine receptor M4 (Homo sapiens) (UniProt P08173); assay: Logarithm of affinity (log 1/M) at the (N-methyl Scopolamine) NMS-liganded muscarinic acetylcholine receptor M4 by using semiquantitative equilibrium and off-rate assay
T1 sequence (whole entry): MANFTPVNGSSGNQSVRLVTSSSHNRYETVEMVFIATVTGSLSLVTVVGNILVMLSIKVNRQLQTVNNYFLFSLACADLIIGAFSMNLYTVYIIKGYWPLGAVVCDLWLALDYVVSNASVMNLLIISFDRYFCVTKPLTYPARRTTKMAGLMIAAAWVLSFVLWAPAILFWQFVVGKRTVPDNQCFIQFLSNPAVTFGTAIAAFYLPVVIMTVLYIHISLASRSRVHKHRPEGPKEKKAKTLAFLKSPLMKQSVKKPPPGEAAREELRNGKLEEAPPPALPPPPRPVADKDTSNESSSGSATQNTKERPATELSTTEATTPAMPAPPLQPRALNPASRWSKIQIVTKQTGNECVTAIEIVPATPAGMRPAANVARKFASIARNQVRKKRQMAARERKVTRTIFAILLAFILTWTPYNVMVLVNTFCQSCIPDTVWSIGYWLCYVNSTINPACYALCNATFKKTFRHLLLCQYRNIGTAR

[2] = molecular target: T1, Muscarinic acetylcholine receptor M4 (Homo sapiens); assay: Subtype selectivity and the cooperativity with N-methyl Scopolamine (NMS) at Muscarinic acetylcholine receptor M4; Activity range is 0.81-1.19
[3] = molecular target: T2, Muscarinic acetylcholine receptor M2 (Homo sapiens) (UniProt P08172); assay: Logarithm of affinity (log 1/M) at the muscarinic acetylcholine receptor M2 by using semiquantitative equilibrium and off-rate assay
T2 sequence (whole entry): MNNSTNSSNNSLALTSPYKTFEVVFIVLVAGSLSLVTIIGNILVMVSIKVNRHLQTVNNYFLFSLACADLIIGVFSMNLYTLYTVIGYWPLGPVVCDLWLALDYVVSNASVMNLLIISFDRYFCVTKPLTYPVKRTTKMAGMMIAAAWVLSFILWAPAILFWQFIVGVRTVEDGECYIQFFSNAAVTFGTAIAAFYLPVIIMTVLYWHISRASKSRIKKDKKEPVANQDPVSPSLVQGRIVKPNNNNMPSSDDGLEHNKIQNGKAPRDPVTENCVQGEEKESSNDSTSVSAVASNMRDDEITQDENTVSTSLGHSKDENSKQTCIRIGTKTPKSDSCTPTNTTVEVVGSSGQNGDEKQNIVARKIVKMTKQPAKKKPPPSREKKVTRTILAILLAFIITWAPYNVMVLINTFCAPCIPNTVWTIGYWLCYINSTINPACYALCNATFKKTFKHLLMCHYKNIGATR

[4] = molecular target: Muscarinic acetylcholine receptor M3 (Homo sapiens) (UniProt P20309); assay: Subtype selectivity and the cooperativity with N-methyl Scopolamine (NMS) at Muscarinic acetylcholine receptor M3; […]
[5] = molecular target: T3, Muscarinic acetylcholine receptor M1 (Homo sapiens) (UniProt P11229); assay: Logarithm of affinity (log 1/M) at the free muscarinic acetylcholine receptor M1 by using semiquantitative equilibrium and off-rate assay
T3 sequence (whole entry): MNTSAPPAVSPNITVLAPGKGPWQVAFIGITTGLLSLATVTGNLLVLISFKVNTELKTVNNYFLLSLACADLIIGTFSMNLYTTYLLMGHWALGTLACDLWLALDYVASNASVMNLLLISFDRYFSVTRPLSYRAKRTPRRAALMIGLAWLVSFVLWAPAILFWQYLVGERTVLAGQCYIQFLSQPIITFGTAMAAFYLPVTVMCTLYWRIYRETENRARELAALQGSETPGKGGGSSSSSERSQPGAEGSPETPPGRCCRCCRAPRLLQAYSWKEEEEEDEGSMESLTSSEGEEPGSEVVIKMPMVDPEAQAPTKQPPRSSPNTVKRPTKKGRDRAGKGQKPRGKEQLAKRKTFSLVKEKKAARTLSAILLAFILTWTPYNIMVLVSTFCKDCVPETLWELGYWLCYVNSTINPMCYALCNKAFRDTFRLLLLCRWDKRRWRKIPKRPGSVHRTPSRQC

[6] = molecular target: Muscarinic acetylcholine receptor M3 (Homo sapiens) (UniProt P20309); assay: Logarithm of affinity (log 1/M) at the (N-methyl Scopolamine) NMS-liganded muscarinic acetylcholine receptor M3 by using semiquantitative equilibrium and off-rate assay
[7] = molecular target: T3, Muscarinic acetylcholine receptor M1 (Homo sapiens); assay: Logarithm of affinity (log 1/M) at the (N-methyl Scopolamine) NMS-liganded muscarinic acetylcholine receptor M1 by using semiquantitative equilibrium and off-rate assay
[8] = molecular target: T2, Muscarinic acetylcholine receptor M2 (Homo sapiens); assay: Logarithm of affinity (log 1/M) at the (N-methyl Scopolamine) NMS-liganded muscarinic acetylcholine receptor M2 by using semiquantitative equilibrium and off-rate assay
[9] = molecular target: T3, Muscarinic acetylcholine receptor M1 (Homo sapiens); assay: Subtype selectivity and the cooperativity with N-methyl Scopolamine (NMS) at Muscarinic acetylcholine receptor M1 Activity range is 0.2-0.8
[10] = molecular target: T2, Muscarinic acetylcholine receptor M2 (Homo sapiens); assay: Subtype selectivity and the cooperativity with N-methyl Scopolamine (NMS) at Muscarinic acetylcholine receptor M2; Activity range is 1.2-3
[11] = molecular target: T1, Muscarinic acetylcholine receptor M4 (Homo sapiens); assay: Logarithm of affinity (log 1/M) at the muscarinic acetylcholine receptor M4 by using semiquantitative equilibrium and off-rate assay
[12] = molecular target: Muscarinic acetylcholine receptor M3 (Homo sapiens) (UniProt P20309); assay: Logarithm of affinity (log 1/M) at the muscarinic acetylcholine receptor M3 by using semiquantitative equilibrium and off-rate assay
[13] = molecular target: T2, Muscarinic acetylcholine receptor M2 (Homo sapiens); assay: Subtype selectivity and the cooperativity with N-methyl Scopolamine (NMS) at Muscarinic acetylcholine receptor M2; Activity range is 0.81-1.19
[14] = molecular target: T3, Muscarinic acetylcholine receptor M1 (Homo sapiens); assay: Subtype selectivity and the cooperativity with N-methyl Scopolamine (NMS) at Muscarinic acetylcholine receptor M1; Activity range is 0.2-0.8
[15] = molecular target: Muscarinic acetylcholine receptor M3 (Homo sapiens) (UniProt P20309); assay: Subtype selectivity and the cooperativity with N-methyl Scopolamine (NMS) at muscarinic acetylcholine receptor M3; Activity range is 0.2-0.8
[16] = molecular target: T1, Muscarinic acetylcholine receptor M4 (Homo sapiens); assay: Subtype selectivity and cooperativity with N-methyl Scopolamine (NMS) at Muscarinic acetylcholine receptor M4; Activity range is 1.2-3
[17] = molecular target: T3, Muscarinic acetylcholine receptor M1 (Homo sapiens); assay: Subtype selectivity and the cooperativity with N-methyl Scopolamine (NMS) at Muscarinic acetylcholine receptor M1; Activity range is 0.81-1.19
[18] = molecular target: T2, Muscarinic acetylcholine receptor M2 (Homo sapiens); assay: Subtype selectivity and the cooperativity with N-methyl Scopolamine (NMS) at Muscarinic acetylcholine receptor M2; activity range is 1.2-3.
[19] = molecular target: T3, Muscarinic acetylcholine receptor M1 (Homo sapiens); assay: Subtype selectivity and the cooperativity with N-methyl Scopolamine (NMS) at Muscarinic acetylcholine receptor M1; Activity range is 1.81-1.19
[20] = molecular target: T2, Muscarinic acetylcholine receptor M2 (Homo sapiens); assay: Subtype selectivity and the cooperativity with N-methyl Scopolamine (NMS) at Muscarinic acetylcholine receptor M2
[21] = molecular target: T1, Muscarinic acetylcholine receptor M4 (Homo sapiens); assay: Subtype selectivity and the cooperativity with N-methyl Scopolamine (NMS) at Muscarinic acetylcholine receptor M4
[22] = molecular target: T2, Muscarinic acetylcholine receptor M2 (Homo sapiens); assay: Subtype selectivity and the cooperativity with N-methyl Scopolamine (NMS) at Muscarinic acetylcholine receptor M2; Activity range is 0.2-0.8
[23] = molecular target: T3, Muscarinic acetylcholine receptor M1 (Homo sapiens); assay: Subtype selectivity and the cooperativity with N-methyl Scopolamine (NMS) at Muscarinic acetylcholine receptor M1
[24] = molecular target: Muscarinic acetylcholine receptor M3 (Homo sapiens) (UniProt P20309); assay: Subtype selectivity and the cooperativity with N-methyl Scopolamine (NMS) at Muscarinic acetylcholine receptor M3
[25] = molecular target: T3, Muscarinic acetylcholine receptor M1 (Homo sapiens); assay: Subtype selectivity and the cooperativity with N-methyl Scopolamine (NMS) at Muscarinic acetylcholine receptor M1; activity value ranges from 0.81-1.19.
[26] = molecular target: Muscarinic acetylcholine receptor M3 (Homo sapiens) (UniProt P20309); assay: Subtype selectivity and the cooperativity with N-methyl Scopolamine (NMS) at Muscarinic acetylcholine receptor M3; activity range is 0.81-1.19.
[27] = molecular target: T1, Muscarinic acetylcholine receptor M4 (Homo sapiens); assay: Subtype selectivity and the cooperativity with N-methyl Scopolamine (NMS) at Muscarinic acetylcholine receptor M4; Activity range is 0.2-0.8
[28] = molecular target: T1, Muscarinic acetylcholine receptor M4 (Homo sapiens); assay: Subtype selectivity and the cooperativity with N-methyl Scopolamine (NMS) at Muscarinic acetylcholine receptor M4; Activity range is 081-1.19

Muscarinic acetylcholine receptor M3 (Homo sapiens), sequence (P20309 whole entry, looked up): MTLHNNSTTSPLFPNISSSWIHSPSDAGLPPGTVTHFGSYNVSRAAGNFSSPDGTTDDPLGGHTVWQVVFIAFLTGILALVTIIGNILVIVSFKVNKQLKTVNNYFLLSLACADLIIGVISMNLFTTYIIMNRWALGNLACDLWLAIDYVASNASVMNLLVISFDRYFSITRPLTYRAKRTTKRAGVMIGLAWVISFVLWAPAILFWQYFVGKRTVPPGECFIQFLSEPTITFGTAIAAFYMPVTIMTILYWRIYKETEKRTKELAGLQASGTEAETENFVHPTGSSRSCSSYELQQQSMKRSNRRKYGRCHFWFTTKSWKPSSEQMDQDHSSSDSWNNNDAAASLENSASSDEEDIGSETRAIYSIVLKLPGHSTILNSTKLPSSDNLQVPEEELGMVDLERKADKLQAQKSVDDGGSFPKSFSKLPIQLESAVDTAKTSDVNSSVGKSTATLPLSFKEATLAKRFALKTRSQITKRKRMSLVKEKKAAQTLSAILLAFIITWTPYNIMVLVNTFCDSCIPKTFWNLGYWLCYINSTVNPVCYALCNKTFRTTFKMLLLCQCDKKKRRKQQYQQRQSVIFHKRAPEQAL

SMILES | Log 1/M [1] | Log 1/M [3] | Log 1/M [5] | Log 1/M [6] | Log 1/M [7] | Log 1/M [8] | Log 1/M [11] | Log 1/M [12] | Cooperativity [14] | Cooperativity [15] | further results
COc1cccc2c1c1c3c(cc4c1n2C(=O)CC4)CNCC3 | 6.26 | 6.43 | 6.5 | 5.52 | 5.95 | 6.7 | 6.25 | 5.58 |  |  | Cooperativity [2]: 1.19; Cooperativity [4]: 1.19; Cooperativity [9]: 0.8; Cooperativity [10]: 3
COc1cc2c(c(OC)c1OC)c1c3c(cc4c1n2C(=O)CC4)CNCC3 | 6.21 | 6.69 | 6.74 | 5.33 | 6.52 | 6.67 | 5.97 | 5.63 | 0.8 | 0.8 | Cooperativity [13]: 1.19; Cooperativity [16]: 3
N#Cc1ccc2c3c4c(cc5c3n(c2c1)C(=O)CC5)CNCC4 | 5.36 | 5.79 | 5.87 | 4.68 | 5.46 | 5.58 | 5.85 | 5.19 | 0.8 | 0.8 | Cooperativity [2]: 1.19; Cooperativity [22]: 0.8
COc1cc2c3c4c(c(COC(C)=O)c5c3n(c2cc1OC)C(=O)CC5)CNCC4 | 6.55 | 6.63 | 6.09 | 5.85 | 6.16 | 7.21 | 5.91 | 5.69 |  |  | Cooperativity [20]: > 3; Cooperativity [25]: 1.19; Cooperativity [21]: > 3; Cooperativity [26]: 1.19
CC1(C)CC(=O)n2c3cccc(O)c3c3c4c(cc1c32)CNCC4 | 5.97 | 5.56 | 5.8 | 4.84 | 5.84 | 5.88 | 5.75 | 5.15 |  | 0.8 | Cooperativity [17]: 1.19; Cooperativity [16]: 3; Cooperativity [10]: 3
O=C(c1ccc2c(c1)c1c3c(cc4c1n2C(=O)CC4)CNCC3)N1CCOCC1 | 4.54 | 4.71 | 5.1 | 3.57 | 4.7 | 5.21 | 5.14 | 4.45 |  |  | Cooperativity [20]: > 3; Cooperativity [23]: < 0.2; Cooperativity [24]: < 0.2; Cooperativity [27]: 0.8
COc1cc2c3c4c(cc5c3n(c2cc1OC)C(=O)CC5(C)C)CCNC4 | 6.37 | 7.08 | 6.88 | 5.47 | 6.29 | 6.7 | 6.67 | 6.03 | 0.8 | 0.8 | Cooperativity [27]: 0.8; Cooperativity [22]: 0.8
COC(=O)c1ccc2c3c4c(cc5c3n(c2c1)C(=O)CC5)CNCC4 | 6.01 | 6.39 | 6.14 | 4.83 | 5.72 | 6.35 | 5.04 | 5.43 | 0.8 | 0.8 | Cooperativity [27]: 0.8; Cooperativity [22]: 0.8

More lines, main results first:

Log 1/M [1] | Log 1/M [3] | Log 1/M [5] | Log 1/M [6] | Log 1/M [7] | Log 1/M [8] | Log 1/M [11] | Log 1/M [12] | Cooperativity [14] | Cooperativity [15] | SMILES | further results
6 | 5.92 | 6.13 | 4.86 | 6.17 | 6.18 | 5.68 | 5.14 |  | 0.8 | COc1ccc2c3c4c(cc5c3n(c2c1)C(=O)CC5)CCNC4 | Cooperativity [17]: 1.19; Cooperativity [16]: 3; Cooperativity [10]: 3
5.65 | 5.6 | 6.59 | 5.23 | 6.13 | 5.64 | 5.52 | 5.6 | 0.8 | 0.8 | O=C1CCc2cc3c(c4c5ccc(O)cc5n1c24)CNCC3 | Cooperativity [2]: 1.19; Cooperativity [13]: 1.19
5.9 | 5.66 | 6.04 | 5.12 | 6.07 | 5.81 | 5.56 | 5.13 |  |  | O=C1CCc2cc3c(c4c5cc(O)ccc5n1c24)CNCC3 | Cooperativity [4]: 1.19; Cooperativity [16]: 3; Cooperativity [18]: 3; Cooperativity [19]: 1.19
6.14 | 5.93 | 5.66 | 5.23 | 5.58 | 6.54 | 5.61 | 5.16 |  |  | O=C1CCc2cc3c(c4c5cc(Cl)ccc5n1c24)CCNC3 | Cooperativity [17]: 1.19; Cooperativity [20]: > 3; Cooperativity [4]: 1.19; Cooperativity [21]: > 3
5.91 | 6.14 | 6.19 | 4.88 | 5.85 | 6.03 | 5.84 | 5.55 | 0.8 | 0.8 | COC(=O)c1ccc2c(c1)c1c3c(cc4c1n2C(=O)CC4)CCNC3 | Cooperativity [2]: 1.19; Cooperativity [22]: 0.8
6.05 | 5.61 | 5.79 | 5.47 | 6.07 | 6.25 | 5.65 | 4.89 |  |  | O=C1CCc2cc3c(c4c5cc(O)ccc5n1c24)CCNC3 | Cooperativity [20]: > 3; Cooperativity [23]: > 3; Cooperativity [24]: > 3; Cooperativity [21]: > 3
5.74 | 5.87 | 6.1 | 4.76 | 5.91 | 6.05 | 5.71 | 5.21 | 0.8 | 0.8 | COc1ccc2c(c1)c1c3c(cc4c1n2C(=O)CC4)CCNC3 | Cooperativity [28]: 1.19; Cooperativity [10]: 3
